Measurements as given in ChEMBL document CHEMBL1201862, “PubChem BioAssay data set” (2004).
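Five compound concentrations were applied to cells in 96-well plates for 48 hours; endpoints were derived by simple linear interpolation of the resulting dose-response curve. Here, GI50 denotes the concentration required for 50% inhibition of growth.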 Active and inactive are the calls of the source. No stated cut-off is given here; in the data, active = GI50 up to about 1.1 µM and inactive = higher.

Legend:
Test in all cases: NCI tumour cell line growth inhibition, 48 h
786-0 = tested on: 786-0
COLO 205 = tested on: COLO 205
DU-145 = tested on: DU-145
EKVX = tested on: EKVX
HCC 2998 = tested on: HCC 2998
HOP-92 = tested on: HOP-92
KM12 = tested on: KM12
MDA-MB-435 = tested on: MDA-MB-435
NCI-H226 = tested on: NCI-H226
NCI-H522 = tested on: NCI-H522
OVCAR-4 = tested on: OVCAR-4
PC-3 = tested on: PC-3
RPMI-8226 = tested on: RPMI-8226
SF-295 = tested on: SF-295
SK-OV-3 = tested on: SK-OV-3
SNB-19 = tested on: SNB-19
TK-10 = tested on: TK-10
UACC-62 = tested on: UACC-62
HCT-15 = tested on: HCT-15
MOLT-4 = tested on: MOLT-4

C=C1C(C)C2C(Cc3ccccc3)NC(=O)C23C(OC(C)=O)C=CC(C)(O)C(=O)C(C)C/C=C/C3C1O (configuration not stated)
GI50 (786-0): 0.311 µM (active) | GI50 (COLO 205): 0.535 µM (active) | GI50 (DU-145): 28.2 µM (inactive) | GI50 (EKVX): 1.8 µM (inactive) | GI50 (HCC 2998): 21.7 µM (inactive) | GI50 (HOP-92): 0.569 µM (active) | GI50 (KM12): 90.8 µM (inactive) | GI50 (MDA-MB-435): 51.1 µM (inactive) | GI50 (NCI-H226): 3.85 µM (inactive) | GI50 (NCI-H522): 2.43 µM (inactive) | GI50 (OVCAR-4): 3.55 µM (inactive) | GI50 (PC-3): 11.7 µM (inactive) | GI50 (RPMI-8226): 5.98 µM (inactive) | GI50 (SF-295): 0.366 µM (active) | GI50 (SK-OV-3): 0.752 µM (active) | GI50 (SNB-19): 0.217 µM (active) | GI50 (TK-10): 0.505 µM (active) | GI50 (UACC-62): 3.36 µM (inactive)

Nc1nc(SCc2ccccc2Cl)cc(C(=O)O)n1
GI50 (786-0): 79.1 µM (inactive) | GI50 (COLO 205): 39.4 µM (inactive) | GI50 (DU-145): > 100 µM (inactive) | GI50 (EKVX): 54.1 µM (inactive) | GI50 (HCC 2998): 59.2 µM (inactive) | GI50 (HCT-15): 41.9 µM | GI50 (HOP-92): 46.2 µM (inactive) | GI50 (KM12): 55.5 µM (inactive) | GI50 (MDA-MB-435): 73.1 µM (inactive) | GI50 (NCI-H226): 49.1 µM (inactive) | GI50 (NCI-H522): 30.9 µM (inactive) | GI50 (OVCAR-4): 60 µM (inactive) | GI50 (PC-3): 53.6 µM (inactive) | GI50 (RPMI-8226): 54.1 µM (inactive) | GI50 (SF-295): 58.2 µM (inactive) | GI50 (SK-OV-3): > 100 µM (inactive) | GI50 (SNB-19): > 100 µM (inactive) | GI50 (TK-10): > 100 µM (inactive) | GI50 (UACC-62): > 100 µM (inactive)

O=C(CC(Cc1ccccc1)c1ccc(Oc2ccccc2)cc1)Nc1cccc(Cl)c1 (configuration not stated)
GI50 (786-0): 5.43 µM (inactive) | GI50 (COLO 205): 6 µM (inactive) | GI50 (DU-145): 5.43 µM (inactive) | GI50 (EKVX): 4.4 µM (inactive) | GI50 (HCC 2998): 3.27 µM (inactive) | GI50 (HCT-15): 3.64 µM | GI50 (HOP-92): 1.9 µM (inactive) | GI50 (KM12): 3.29 µM (inactive) | GI50 (MDA-MB-435): 4.32 µM (inactive) | GI50 (MOLT-4): 3.69 µM (inactive) | GI50 (NCI-H226): 7.48 µM (inactive) | GI50 (NCI-H522): 3.1 µM (inactive) | GI50 (OVCAR-4): 6.03 µM (inactive) | GI50 (PC-3): 3.7 µM (inactive) | GI50 (RPMI-8226): 3.72 µM (inactive) | GI50 (SF-295): 3.24 µM (inactive) | GI50 (SK-OV-3): 5.46 µM (inactive) | GI50 (SNB-19): 4.5 µM (inactive) | GI50 (TK-10): 10 µM (inactive) | GI50 (UACC-62): 3.04 µM (inactive)

COc1ccc(Oc2nc3cc(C(F)(F)F)ccc3nc2C(C)C)cc1
GI50 (786-0): 36 µM (inactive) | GI50 (COLO 205): 16 µM (inactive) | GI50 (DU-145): 27.2 µM (inactive) | GI50 (EKVX): 19.2 µM (inactive) | GI50 (HCC 2998): 20.1 µM (inactive) | GI50 (HCT-15): 23.8 µM | GI50 (HOP-92): 17.2 µM (inactive) | GI50 (KM12): 31.6 µM (inactive) | GI50 (MDA-MB-435): 30.1 µM (inactive) | GI50 (MOLT-4): 15.7 µM (inactive) | GI50 (NCI-H226): 21 µM (inactive) | GI50 (NCI-H522): 19.1 µM (inactive) | GI50 (OVCAR-4): 34.7 µM (inactive) | GI50 (PC-3): 41.6 µM (inactive) | GI50 (RPMI-8226): 19.4 µM (inactive) | GI50 (SF-295): 21.2 µM (inactive) | GI50 (SK-OV-3): 38.7 µM (inactive) | GI50 (SNB-19): 33.1 µM (inactive) | GI50 (TK-10): 81.7 µM (inactive) | GI50 (UACC-62): 28.2 µM (inactive)

CC(C)(C)C1=CC(=C2C=Cc3cc(O)ccc3O2)C=C(C(C)(C)C)C1=O
GI50 (786-0): 1.36 µM (inactive) | GI50 (COLO 205): 1.72 µM (inactive) | GI50 (DU-145): 1.45 µM (inactive) | GI50 (EKVX): 1.85 µM (inactive) | GI50 (HCC 2998): 1.26 µM (inactive) | GI50 (HCT-15): 1.79 µM | GI50 (HOP-92): 1.67 µM (inactive) | GI50 (KM12): 1.58 µM (inactive) | GI50 (MDA-MB-435): 1.5 µM (inactive) | GI50 (MOLT-4): 0.435 µM (active) | GI50 (NCI-H226): 1.85 µM (inactive) | GI50 (NCI-H522): 1.48 µM (inactive) | GI50 (OVCAR-4): 1.31 µM (inactive) | GI50 (PC-3): 1.57 µM (inactive) | GI50 (RPMI-8226): 0.782 µM (active) | GI50 (SF-295): 1.87 µM (inactive) | GI50 (SK-OV-3): 2.21 µM (inactive) | GI50 (SNB-19): 1.77 µM (inactive) | GI50 (TK-10): 1.7 µM (inactive) | GI50 (UACC-62): 1.38 µM (inactive)

CCOC(=O)NC1=C(N2CC2)C(=O)C(NC(=O)OCC)=C(N2CC2)C1=O [DIAZIQUONE]
GI50 (786-0): 1.56 µM (inactive) | GI50 (COLO 205): 7.69 µM (inactive) | GI50 (DU-145): 1.9 µM (inactive) | GI50 (EKVX): 6.37 µM (inactive) | GI50 (HCC 2998): 6.85 µM (inactive) | GI50 (HCT-15): 7.69 µM | GI50 (HOP-92): 5.51 µM (inactive) | GI50 (KM12): 8.81 µM (inactive) | GI50 (MDA-MB-435): 3.58 µM (inactive) | GI50 (MOLT-4): 1.38 µM (inactive) | GI50 (NCI-H226): 4.23 µM (inactive) | GI50 (NCI-H522): 3.14 µM (inactive) | GI50 (OVCAR-4): 4.9 µM (inactive) | GI50 (PC-3): 4.36 µM (inactive) | GI50 (RPMI-8226): 3.99 µM (inactive) | GI50 (SF-295): 1.12 µM (active) | GI50 (SK-OV-3): 4.52 µM (inactive) | GI50 (SNB-19): 4.11 µM (inactive) | GI50 (TK-10): 31.6 µM (inactive) | GI50 (UACC-62): 0.489 µM (active)

CC(C)C(=O)/C=C/c1c(Cl)cccc1Cl
GI50 (786-0): 7.74 µM (inactive) | GI50 (COLO 205): 10.4 µM (inactive) | GI50 (DU-145): 3.51 µM (inactive) | GI50 (EKVX): 13.3 µM (inactive) | GI50 (HCC 2998): 15.6 µM (inactive) | GI50 (HCT-15): 4.55 µM | GI50 (HOP-92): 12.9 µM (inactive) | GI50 (KM12): 2.85 µM (inactive) | GI50 (MDA-MB-435): 3.08 µM (inactive) | GI50 (MOLT-4): 4.63 µM (inactive) | GI50 (NCI-H226): 2.33 µM (inactive) | GI50 (NCI-H522): 1.19 µM (inactive) | GI50 (OVCAR-4): 3.4 µM (inactive) | GI50 (PC-3): 11.5 µM (inactive) | GI50 (RPMI-8226): > 100 µM (inactive) | GI50 (SF-295): 11.6 µM (inactive) | GI50 (SK-OV-3): 3.28 µM (inactive) | GI50 (SNB-19): 10.8 µM (inactive) | GI50 (TK-10): 12.1 µM (inactive) | GI50 (UACC-62): 6.35 µM (inactive)
